Measured values from patent US9895381B2, “Vitamin D receptor agonists to treat diseases involving CXCL12 activity” (Salk Institute for Biological Studies, priority 2013, dated 2018).

Tested on: primary mouse PSCs
Assay: RNA-Seq transcriptome of PSCs with or without VDR ligand
Assay type: cell-based
Description: Pancreatic stellate cells (PSCs) were isolated from pancreata of wild-type C57BL6/J mice at 8 weeks of age by a modification of the method described by Apte et al. (Apte et al., 1998). Briefly, pancreatic tissue was minced with scissors and digested with 0.02% Pronase (Roche, Indianapolis, Ind.), 0.05% Collagenase P (Roche), and 0.1% DNase (Roche) in Gey's balanced salt solution (GBSS; Sigma Aldrich, St. Louis, Mo.) at 37° C. for […] Digested tissue was then filtered through a 100 μm nylon mesh. Cells were washed once with GBSS, pelleted, and resuspended in 9.5 ml GBSS containing 0.3% bovine serum albumin (BSA) and 8 ml 28.7% Nycodenz solution (Sigma Aldrich; approximate density of the solution is 1.070). The cell suspension was layered beneath GBSS containing 0.3% BSA, and centrifuged at 1400×g for 20 min at 4° C. The cells of interest were harvested from the interface of the Nycodenz solution at the bottom and the aqueous solution at the top. Isolated PSCs were washed with GBSS and resuspended in DMEM (Invitrogen) containing 10% characterized FBS (HyClone) and antibiotics (penicillin 100 U/ml and streptomycin 100 μg/ml, Invitrogen). Cells were maintained at 37° C. in a humidified atmosphere of 7% CO2. After reaching 80% confluence, cells were briefly trypsinized (0.25% Trypsin-EDTA, Invitrogen) and subcultured. Total RNA from human and mouse PSCs was isolated using Trizol (Invitrogen) and the RNeasy mini kit with on-column DNase digestion (Qiagen) according to the manufacturers' instructions. Biological quadruplicates were used for human samples, and biological triplicates used for mouse samples. For transcriptome studies with VDR activation, PSCs were treated with vehicle (DMSO) or 100 nM calcipotriol (Tocris) and harvested at the indicated time points. Sequencing libraries were prepared from 100-500 ng total RNA using the TruSeq RNA Sample Preparation Kit v2 (Illumina) according to the manufacturer's protocol. The Gene Expression Omnibus accession number for the RNA-Seq data is GSE43770. Briefly, mRNA was purified, fragmented, and used for first-, then second-strand cDNA synthesis followed by adenylation of 3′ ends. Samples were ligated to unique adapters and subject to PCR amplification. Libraries were then validated using the 2100 BioAnalyzer (Agilent), normalized, and pooled for sequencing. Human normal and cancer-associated PSCs were sequenced on the Illumina GAII platform with a 41 bp read length, while mouse PSCs and human MiaPaCa-2 cells were sequenced on the Illumina HiSeq 2000 using bar-coded multiplexing and a 51 bp read length. Read alignment and junction mapping was accomplished using TopHat2 v2.0.4 using a 25 bp 5′ segment seed for initial mapping followed by differential gene expression analysis using Cuffdiff v2.0.2 to map reads to the reference genome annotation, NCBI mouse build 37.2 and human build 37.2 (Trapnell et al., 2012). Median sequencing read yield per replicate sample was 49.2M for MiaPaCa-2 cells, 25.4M for mouse PSCs and 53.8M for human PSCs. Data were expressed as fragments per kilobase of exon per million fragments mapped (FPKM). Volcano plots were generated from Cuffdiff output using CummeRbund v2.0.0 (Trapnell et al., 2012).

## C=C1/C(=C\C=C2/CCC[C@]3(C)[C@@H]([C@H](C)/C=C/[C@@H](O)C4CC4)CC[C@@H]23)C[C@@H](O)C[C@@H]1O [Cal, 1α,24-(OH)2-24-cyclopropyl-D3]
  effect on activation and cancer signatures in PSCs: inhibition of the activation and cancer signatures
Activated PSCs
  genes with significantly decreased expression: 1616 genes
  genes with significantly increased expression: 664 genes
pre-activated PSCs
  genes with significantly decreased expression: 431 genes
  genes with significantly increased expression: 307 genes
